Data published in ChEMBL document CHEMBL4017454, “Bioactive terpenoids from Silybum marianum and their suppression on NO release in LPS-induced BV-2 cells and interaction with iNOS” (Bioorg Med Chem Lett, 2017).

Experiments:
BV-2 [1] = assay: Inhibition of LPS-induced NO production in mouse BV2 cells after 20 hrs by Griess assay; format: functional, cell-based; settings: BV-2, 20 h
BV-2 [2] = assay: Cytotoxicity against mouse BV2 cells assessed as cell survival by MTT assay; format: cell-based

| Structure (SMILES) | IC50 (BV-2 [1]) | Activity (BV-2 [2]) |
| --- | --- | --- |
| CC(C)(O)c1ccc(CO)c(O)c1 | 15.2 µM | Non-Toxic |
| CC1=C2C[C@H]([C@@](C)(O)CO)CC[C@@]2(C)[C@H](O)CC1=O | 6.8 µM | Non-Toxic |
| CSC(=N)N.O=S(=O)(O)O | 2.5 µM | Non-Toxic |

More lines, in order of falling IC50 (BV-2 [1]), values ahead:

| IC50 (BV-2 [1]) | Structure (SMILES) | Activity (BV-2 [2]) |
| --- | --- | --- |
| 17.8 µM | Cc1ccc([C@@H](C)CO)cc1O | Non-Toxic |
| 14.1 µM | CC(C)(O)c1ccc(CO)c(O[C@@H]2O[C@H](CO)[C@@H](O)[C@H](O)[C@H]2O)c1 | Non-Toxic |
